PMC12251549, “Engineering a Radiohybrid PSMA Ligand with an Albumin-Binding Moiety and Pharmacokinetic Modulation via an Albumin-Binding Competitor for Radiotheranostics” (Molecules, 2025)
Each block holds one compound with its values, some of them ahead of it.

Key:
[1] = test system: PSMA-expressing LNCaP cells; test: Cellular uptake and internalization in LNCaP cells, blocking with 2-PMPA; assay type: cell-based
Method: Cellular uptake experiments were performed according to a previous report with slight modifications. LNCaP cells expressing PSMA were cultured in RPMI 1640 medium containing 10% fetal bovine serum (FBS) and 1% penicillin–streptomycin on 6-well culture plates (containing 5 × 10^5 cells/well) for 24 h in a humidified atmosphere (5% CO2) incubator at 37 °C. After removing the medium and washing with phosphate-buffered saline (PBS) (−) once, a mixed solution of [^125I]5 and [^211At]6, [^125I]5 and [^67Ga]Ga-PSMA-617, and [^125I]5 and [^67Ga]5 in 1.0 mL of medium without FBS was added (3.7 kBq/each tracer/well). The final concentrations of the radioligands for [^125I]5, [^211At]6, and [^67Ga]5 were 45.5 pM, 0.2 pM, and 2.5 pM, respectively. These solutions containing radioligands were diluted in saline containing 0.05% (w/v) bovine serum albumin (BSA) to prevent adsorption to tubes or plates and further diluted with medium to 0.00125% as the final BSA concentration. After incubation for 10, 60, and 120 min, the medium from each well was removed, and the cells were washed twice with ice-cold PBS (−); the surface of the cells was washed twice with ice-cold 0.2 M glycine buffer (pH 3.0). The cells were lysed using a 1 M NaOH aqueous solution. The radioactivity of ^67Ga,^125I and ^211At in the 1 M NaOH aqueous solution was determined and defined as the internalized radioligand fraction using an auto well gamma counter (ARC-8001, Hitachi, Ltd., Tokyo, Japan) according to a previous paper. The radioactivity was determined with an auto well gamma counter and corrected for background radiation and physical decay during counting. A window from 16 to 69 keV was used for counting ^125I, and a window from 70 to 120 keV was used for counting ^211At. Correlation factors to eliminate any crossover of ^125I activity in the ^211At counts were determined by measuring the ^125I standard in each window. More than one week after the experiments, the radioactivity counts of ^125I were measured after the decay of ^211At. The protein amount in cells was quantified using a BCA Protein Assay Kit (Nacalai Tesque, Kyoto, Japan) according to the manufacturer’s protocol. All data were expressed as percent dose per milligram protein (%dose/mg protein). In blocking experiments, a selective inhibitor of the PSMA, (2S)-2-(phosphonomethyl)pentanedioic acid (2-PMPA) (final concentration 100 µM), was added to each well with tracers. After incubation for 10, 60, and 120 min, radioactivity and protein concentration were determined in the same manner as the experiment without the blocking agent.

[2] = Biodistribution after intravenous co-injection of [125I]5 and [67Ga]Ga-PSMA-617 (Table S1); assay type: in vivo, normal mice (ddY); conditions: normal mice; for Biodistribution of radioactivity: Blood / Biodistribution of radioactivity: Bone / Biodistribution of radioactivity: Brain / Biodistribution of radioactivity: Heart / Biodistribution of radioactivity: Kidney / Biodistribution of radioactivity: L. Intestine / Biodistribution of radioactivity: Liver / Biodistribution of radioactivity: Lung / Biodistribution of radioactivity: Muscle / Biodistribution of radioactivity: Neck / Biodistribution of radioactivity: Pancreas / Biodistribution of radioactivity: S. Intestine / Biodistribution of radioactivity: Spleen / Biodistribution of radioactivity: Stomach: i.v.
Method: [^67Ga]Ga-PSMA-617 (37 kBq) and [^125I]5 (37 kBq) or [^125I]5 (37 kBq) and [^211At]6 (37 kBq) were intravenously co-administered into three or four normal mice at each timepoint (6 weeks male ddY mice, 28–30 g, Japan SLC, Inc., Hamamatsu, Japan). Mice were sacrificed at 10 min, 1 h, 4 h, and 24 h ([^67Ga]Ga-PSMA-617 and [^125I]5) or at 10 min, 1 h, 4 h, 12 h, and 24 h ([^125I]5 and [^211At]6) postinjection of the radiolabeled compounds. Tissues of interest were removed and weighed, and the radioactivity of ^67Ga and ^125I and ^125I and ^211At were determined with an auto well gamma counter (ARC-8001) and corrected for background radiation as described in the Cellular Uptake Experiments Section. To determine the amount and routes of the radioactivity excreted from the body for 24 h after the injection of radiolabeled compounds, mice were housed in metabolic cages (METABOLICA, SUGIYAMA-GEN Co., Ltd., Tokyo, Japan). Data are shown as the percentage of injected dose per gram of tissues (%ID/g) or %ID.

[3] = In vitro stability test in 0.1 M phosphate buffer; assay type: physicochemical; conditions: 0.1 M PB solution containing 10% ethanol, 37 °C, 24 h, mean ± SD for three samples
Method: samples were analyzed by RP-HPLC using a Cosmosil 5C18-AR-II (4.6 × 150 mm) at a flow rate of 1 mL/min with a gradient mobile phase of 60% methanol in water with 0.1% trifluoroacetic acid (TFA) to 80% methanol in water with 0.1% TFA for 20 min.
In vitro stability test in 0.1 M PB solution containing 10% ethanol was performed. The […]
and 97.1 ± 0.9% (mean ± SD for three samples) after incubating at 37 °C for 24 h, […]

Excretion in feces ([2]; 24 h postinjection): 2.4 ± 0.3 %ID
Excretion in urine ([2]; 24 h postinjection): 58.0 ± 2.6 %ID
Biodistribution of radioactivity: Blood ([2]; 10 min after injection): 3.40 (0.42) % injected dose per gram
Biodistribution of radioactivity: Bone ([2]; 10 min after injection): 1.02 (0.23) % injected dose per gram
Biodistribution of radioactivity: Brain ([2]; 10 min after injection): 0.11 (0.02) % injected dose per gram
Biodistribution of radioactivity: Heart ([2]; 10 min after injection): 1.22 (0.11) % injected dose per gram
Biodistribution of radioactivity: Kidney ([2]; 10 min after injection): 69.46 (8.76) % injected dose per gram
Biodistribution of radioactivity: L. Intestine ([2]; 10 min after injection): 0.58 (0.07) % injected dose per gram
Biodistribution of radioactivity: Liver ([2]; 10 min after injection): 0.74 (0.10) % injected dose per gram
Biodistribution of radioactivity: Lung ([2]; 10 min after injection): 2.60 (0.40) % injected dose per gram
Biodistribution of radioactivity: Muscle ([2]; 10 min after injection): 0.75 (0.08) % injected dose per gram
Biodistribution of radioactivity: Neck ([2]; 10 min after injection): 0.02 (0.01) % injected dose
Biodistribution of radioactivity: Pancreas ([2]; 10 min after injection): 1.03 (0.18) % injected dose per gram
Biodistribution of radioactivity: S. Intestine ([2]; 10 min after injection): 0.75 (0.03) % injected dose per gram
Biodistribution of radioactivity: Spleen ([2]; 10 min after injection): 0.96 (0.09) % injected dose per gram
Biodistribution of radioactivity: Stomach ([2]; 10 min after injection): 0.38 (0.02) % injected dose
Biodistribution of radioactivity: Blood ([2]; 1 h after injection): 0.29 (0.04) % injected dose per gram
Biodistribution of radioactivity: Bone ([2]; 1 h after injection): 0.18 (0.04) % injected dose per gram
Biodistribution of radioactivity: Brain ([2]; 1 h after injection): 0.02 (0.00) % injected dose per gram
Biodistribution of radioactivity: Heart ([2]; 1 h after injection): 0.11 (0.00) % injected dose per gram
Biodistribution of radioactivity: Kidney ([2]; 1 h after injection): 16.32 (3.17) % injected dose per gram
Biodistribution of radioactivity: L. Intestine ([2]; 1 h after injection): 0.07 (0.01) % injected dose per gram
Biodistribution of radioactivity: Liver ([2]; 1 h after injection): 0.18 (0.07) % injected dose per gram
Biodistribution of radioactivity: Lung ([2]; 1 h after injection): 0.28 (0.03) % injected dose per gram
Biodistribution of radioactivity: Muscle ([2]; 1 h after injection): 0.09 (0.00) % injected dose per gram
Biodistribution of radioactivity: Neck ([2]; 1 h after injection): 0.00 (0.00) % injected dose
Biodistribution of radioactivity: Pancreas ([2]; 1 h after injection): 0.14 (0.03) % injected dose per gram
Biodistribution of radioactivity: S. Intestine ([2]; 1 h after injection): 0.16 (0.02) % injected dose per gram
Biodistribution of radioactivity: Spleen ([2]; 1 h after injection): 0.14 (0.01) % injected dose per gram
Biodistribution of radioactivity: Stomach ([2]; 1 h after injection): 0.07 (0.02) % injected dose
Biodistribution of radioactivity: Blood ([2]; 4 h after injection): 0.07 (0.01) % injected dose per gram
Biodistribution of radioactivity: Bone ([2]; 4 h after injection): 0.14 (0.05) % injected dose per gram
Biodistribution of radioactivity: Brain ([2]; 4 h after injection): 0.01 (0.00) % injected dose per gram
Biodistribution of radioactivity: Heart ([2]; 4 h after injection): 0.04 (0.02) % injected dose per gram
Biodistribution of radioactivity: Kidney ([2]; 4 h after injection): 1.54 (0.08) % injected dose per gram
Biodistribution of radioactivity: L. Intestine ([2]; 4 h after injection): 0.59 (0.79) % injected dose per gram
Biodistribution of radioactivity: Liver ([2]; 4 h after injection): 0.08 (0.01) % injected dose per gram
Biodistribution of radioactivity: Lung ([2]; 4 h after injection): 0.06 (0.01) % injected dose per gram
Biodistribution of radioactivity: Muscle ([2]; 4 h after injection): 0.02 (0.01) % injected dose per gram
Biodistribution of radioactivity: Neck ([2]; 4 h after injection): 0.00 (0.00) % injected dose
Biodistribution of radioactivity: Pancreas ([2]; 4 h after injection): 0.04 (0.02) % injected dose per gram
Biodistribution of radioactivity: S. Intestine ([2]; 4 h after injection): 0.22 (0.17) % injected dose per gram
Biodistribution of radioactivity: Spleen ([2]; 4 h after injection): 0.05 (0.01) % injected dose per gram
Biodistribution of radioactivity: Stomach ([2]; 4 h after injection): 0.07 (0.04) % injected dose
Biodistribution of radioactivity: Blood ([2]; 24 h after injection): 0.01 (0.00) % injected dose per gram
Biodistribution of radioactivity: Bone ([2]; 24 h after injection): 0.16 (0.04) % injected dose per gram
Biodistribution of radioactivity: Brain ([2]; 24 h after injection): 0.00 (0.00) % injected dose per gram
Biodistribution of radioactivity: Heart ([2]; 24 h after injection): 0.01 (0.01) % injected dose per gram
Biodistribution of radioactivity: Kidney ([2]; 24 h after injection): 0.29 (0.06) % injected dose per gram
Biodistribution of radioactivity: L. Intestine ([2]; 24 h after injection): 0.15 (0.11) % injected dose per gram
Biodistribution of radioactivity: Liver ([2]; 24 h after injection): 0.04 (0.01) % injected dose per gram
Biodistribution of radioactivity: Lung ([2]; 24 h after injection): 0.02 (0.01) % injected dose per gram
Biodistribution of radioactivity: Muscle ([2]; 24 h after injection): 0.01 (0.00) % injected dose per gram
Biodistribution of radioactivity: Neck ([2]; 24 h after injection): 0.00 (0.00) % injected dose
Biodistribution of radioactivity: Pancreas ([2]; 24 h after injection): 0.02 (0.01) % injected dose per gram
Biodistribution of radioactivity: S. Intestine ([2]; 24 h after injection): 0.04 (0.03) % injected dose per gram
Biodistribution of radioactivity: Spleen ([2]; 24 h after injection): 0.03 (0.01) % injected dose per gram
Biodistribution of radioactivity: Stomach ([2]; 24 h after injection): 0.05 (0.04) % injected dose
Compound: O=C([O-])CN1CCN(CC(=O)[O-])CCN(CC(=O)NCC2CCC(C(=O)NC(Cc3ccc4ccccc4c3)C(=O)NCCCCC(NC(=O)NC(CCC(=O)O)C(=O)O)C(=O)O)CC2)CCN(CC(=O)[O-])CC1.[67Ga+3] (centres unmarked) [[^67Ga]Ga-PSMA-617, reference compound]
Cellular uptake and internalization levels compared with [125I]5 and [211At]6 [1]: lower
Clearance from organs ([2]; 1 h postinjection): rapid clearance from most organs except the kidney

Radiochemical purity after incubation (in vitro stability) [3]: 93.1 ± 0.9%
Compound: O=C([O-])CN1CCN(CC(=O)[O-])CCN(CC(=O)NC(CCCCNC(=O)CCCc2ccc(I)cc2)C(=O)NCC2CCC(C(=O)NC(Cc3ccc4ccccc4c3)C(=O)NCCCCC(NC(=O)NC(CCC(=O)O)C(=O)O)C(=O)O)CC2)CCN(CC(=O)[O-])CC1.[67Ga+3] (centres unmarked) [[^67Ga]5]
Effect of excess 2-PMPA on cellular uptake ([1]; 2-PMPA 100 µM): significantly reduced
